The test system of one data set is A549. The experiment in a line: cells. It is filed as functional, cell-based. The conditions noted are these: Homo sapiens, A549, 70 min.
Data set [1] deals with Eukaryotic initiation factor 4A-I (Homo sapiens, UniProt P60842).
In another data set the test system is Leukemia cell. Put plainly: cells. It is filed as functional, cell-based. Conditions: Homo sapiens, 72 h.
The next data set concerns Lymphoma cell line. The experiment in a line: cells. The conditions noted are these: Homo sapiens, 72 h. It is filed as functional, cell-based.
In data set [2] the target is Phosphatidylinositol 4,5-bisphosphate 3-kinase catalytic subunit gamma isoform (Homo sapiens, UniProt P48736).
In data set [3] the target is MAP kinase-interacting serine/threonine-protein kinase 2 (Homo sapiens, UniProt Q9HBH9).
Another data set deals with mTORC1 (Homo sapiens) (UniProt P42345+Q8N122+Q9BVC4). Conditions: dose 500.0 nM.
Data set [4] concerns MDA-MB-231. Put plainly: animal or person. It is filed as functional, Homo sapiens. Conditions: Mus musculus, MDA-MB-231, 696 h, route ip, time 29 day, read-out: TGI.
Data set [5] has as its system MDA-MB-231. The experiment in a line: animal or person. It is filed as functional, Homo sapiens. The conditions noted are these: Mus musculus, MDA-MB-231, 696 h, route ip, time 29 day, read-out: TGI. The source holds these as a separate data set.
Data set [6] deals with MDA-MB-231. The experiment in a line: animal or person. It is filed as functional, Homo sapiens. Conditions: Mus musculus, MDA-MB-231, 696 h, route ip, time 29 day, read-out: TGI. The source holds these as a separate data set.
In data set [7] the test system is CWR22R. Put plainly: animal or person. It is filed as functional, Homo sapiens. The conditions noted are these: Mus musculus, 22Rv1, 816 h, route ip, time 34 day, read-out: TGI.
The subject of data set [8] is CWR22R. The experiment in a line: animal or person. It is filed as functional, Homo sapiens. The conditions noted are these: Mus musculus, 22Rv1, 816 h, route ip, time 34 day, read-out: TGI. The source holds these as a separate data set.
A further data set can be described thus: animal or person. The conditions noted are these: Homo sapiens, BR100 cell, 408 h, route ip, time 17 day, read-out: TGI. It is filed as functional.
Another data set concerns the target EIF4E/EIF4G1 (Homo sapiens, UniProt P06730+Q04637). It is filed as protein-complex assay.
A further data set is described as follows: in vivo. Conditions: mouse, po.

Chain of MAP kinase-interacting serine/threonine-protein kinase 2 (Q9HBH9 whole entry): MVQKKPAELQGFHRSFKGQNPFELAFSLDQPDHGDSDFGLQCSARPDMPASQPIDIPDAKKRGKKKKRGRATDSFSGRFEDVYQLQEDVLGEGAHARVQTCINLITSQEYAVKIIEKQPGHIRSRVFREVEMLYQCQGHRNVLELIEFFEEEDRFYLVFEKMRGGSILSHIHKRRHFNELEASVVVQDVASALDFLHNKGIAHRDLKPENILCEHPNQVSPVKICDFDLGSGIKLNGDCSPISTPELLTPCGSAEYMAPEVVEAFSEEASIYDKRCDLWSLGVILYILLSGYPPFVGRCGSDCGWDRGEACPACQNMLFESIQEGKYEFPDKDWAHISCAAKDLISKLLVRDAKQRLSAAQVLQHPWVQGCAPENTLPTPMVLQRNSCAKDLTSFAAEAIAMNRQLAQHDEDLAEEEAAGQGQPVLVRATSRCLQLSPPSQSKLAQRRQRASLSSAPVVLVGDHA
Chain of Eukaryotic initiation factor 4A-I (P60842 whole entry): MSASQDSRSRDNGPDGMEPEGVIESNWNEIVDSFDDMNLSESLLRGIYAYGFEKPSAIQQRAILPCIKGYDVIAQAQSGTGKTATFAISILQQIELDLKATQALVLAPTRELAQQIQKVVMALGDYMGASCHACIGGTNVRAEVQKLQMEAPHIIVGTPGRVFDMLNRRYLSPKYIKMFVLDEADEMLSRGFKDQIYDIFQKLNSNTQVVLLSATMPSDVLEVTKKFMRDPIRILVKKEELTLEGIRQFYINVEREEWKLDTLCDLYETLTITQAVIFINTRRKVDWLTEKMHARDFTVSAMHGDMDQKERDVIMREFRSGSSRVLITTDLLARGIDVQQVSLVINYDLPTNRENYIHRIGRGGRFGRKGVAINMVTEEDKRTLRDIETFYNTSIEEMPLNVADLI
Chain of EIF4E/EIF4G1 (P06730 whole entry): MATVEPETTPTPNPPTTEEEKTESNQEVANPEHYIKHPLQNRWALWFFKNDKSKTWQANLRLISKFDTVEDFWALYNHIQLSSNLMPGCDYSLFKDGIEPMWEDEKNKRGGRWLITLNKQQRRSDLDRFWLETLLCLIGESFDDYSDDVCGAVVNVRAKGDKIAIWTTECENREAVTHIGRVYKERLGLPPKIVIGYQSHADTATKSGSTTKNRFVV
Chain of EIF4E/EIF4G1 (Q04637 whole entry): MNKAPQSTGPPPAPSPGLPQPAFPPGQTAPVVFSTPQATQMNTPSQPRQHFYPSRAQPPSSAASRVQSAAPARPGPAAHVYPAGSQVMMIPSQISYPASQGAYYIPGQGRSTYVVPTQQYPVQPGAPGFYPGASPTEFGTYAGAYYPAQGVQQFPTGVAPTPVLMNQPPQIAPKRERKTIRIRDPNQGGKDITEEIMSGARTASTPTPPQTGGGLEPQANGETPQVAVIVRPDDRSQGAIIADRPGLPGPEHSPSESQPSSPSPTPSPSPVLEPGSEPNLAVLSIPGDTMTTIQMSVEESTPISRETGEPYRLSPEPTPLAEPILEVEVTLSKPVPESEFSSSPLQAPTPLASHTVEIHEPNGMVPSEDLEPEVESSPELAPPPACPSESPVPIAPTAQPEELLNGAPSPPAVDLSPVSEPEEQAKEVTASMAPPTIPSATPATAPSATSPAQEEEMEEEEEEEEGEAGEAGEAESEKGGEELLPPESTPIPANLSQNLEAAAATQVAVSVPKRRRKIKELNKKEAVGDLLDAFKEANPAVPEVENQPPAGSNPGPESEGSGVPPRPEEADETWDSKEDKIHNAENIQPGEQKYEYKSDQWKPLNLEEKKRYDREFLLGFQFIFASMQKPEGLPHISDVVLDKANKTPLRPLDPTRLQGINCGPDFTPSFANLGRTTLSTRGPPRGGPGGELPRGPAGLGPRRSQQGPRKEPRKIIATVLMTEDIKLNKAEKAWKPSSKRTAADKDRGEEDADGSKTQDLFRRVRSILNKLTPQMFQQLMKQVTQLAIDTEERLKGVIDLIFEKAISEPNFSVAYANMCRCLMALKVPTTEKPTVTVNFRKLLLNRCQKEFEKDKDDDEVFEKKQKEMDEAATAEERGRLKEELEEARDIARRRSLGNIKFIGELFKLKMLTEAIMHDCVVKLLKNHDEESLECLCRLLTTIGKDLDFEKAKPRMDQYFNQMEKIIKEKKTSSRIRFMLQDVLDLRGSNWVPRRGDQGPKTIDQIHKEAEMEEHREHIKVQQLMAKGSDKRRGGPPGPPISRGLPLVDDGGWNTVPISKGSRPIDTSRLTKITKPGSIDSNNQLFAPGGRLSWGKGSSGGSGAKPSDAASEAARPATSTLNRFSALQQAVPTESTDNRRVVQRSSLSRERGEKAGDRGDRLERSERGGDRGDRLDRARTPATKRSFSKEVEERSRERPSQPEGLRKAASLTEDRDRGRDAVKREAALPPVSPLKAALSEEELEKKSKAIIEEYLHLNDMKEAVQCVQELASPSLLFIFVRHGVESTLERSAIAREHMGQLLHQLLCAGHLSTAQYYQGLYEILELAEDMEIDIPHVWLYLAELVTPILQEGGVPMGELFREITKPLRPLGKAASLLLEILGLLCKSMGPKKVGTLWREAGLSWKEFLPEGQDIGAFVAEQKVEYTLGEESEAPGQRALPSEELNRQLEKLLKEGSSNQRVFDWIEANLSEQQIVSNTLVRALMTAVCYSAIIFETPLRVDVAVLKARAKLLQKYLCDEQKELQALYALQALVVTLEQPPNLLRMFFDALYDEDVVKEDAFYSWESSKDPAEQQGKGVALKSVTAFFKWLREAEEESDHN
Chain of mTORC1 (Homo sapiens) (Q8N122 whole entry, looked up, other chains not shown): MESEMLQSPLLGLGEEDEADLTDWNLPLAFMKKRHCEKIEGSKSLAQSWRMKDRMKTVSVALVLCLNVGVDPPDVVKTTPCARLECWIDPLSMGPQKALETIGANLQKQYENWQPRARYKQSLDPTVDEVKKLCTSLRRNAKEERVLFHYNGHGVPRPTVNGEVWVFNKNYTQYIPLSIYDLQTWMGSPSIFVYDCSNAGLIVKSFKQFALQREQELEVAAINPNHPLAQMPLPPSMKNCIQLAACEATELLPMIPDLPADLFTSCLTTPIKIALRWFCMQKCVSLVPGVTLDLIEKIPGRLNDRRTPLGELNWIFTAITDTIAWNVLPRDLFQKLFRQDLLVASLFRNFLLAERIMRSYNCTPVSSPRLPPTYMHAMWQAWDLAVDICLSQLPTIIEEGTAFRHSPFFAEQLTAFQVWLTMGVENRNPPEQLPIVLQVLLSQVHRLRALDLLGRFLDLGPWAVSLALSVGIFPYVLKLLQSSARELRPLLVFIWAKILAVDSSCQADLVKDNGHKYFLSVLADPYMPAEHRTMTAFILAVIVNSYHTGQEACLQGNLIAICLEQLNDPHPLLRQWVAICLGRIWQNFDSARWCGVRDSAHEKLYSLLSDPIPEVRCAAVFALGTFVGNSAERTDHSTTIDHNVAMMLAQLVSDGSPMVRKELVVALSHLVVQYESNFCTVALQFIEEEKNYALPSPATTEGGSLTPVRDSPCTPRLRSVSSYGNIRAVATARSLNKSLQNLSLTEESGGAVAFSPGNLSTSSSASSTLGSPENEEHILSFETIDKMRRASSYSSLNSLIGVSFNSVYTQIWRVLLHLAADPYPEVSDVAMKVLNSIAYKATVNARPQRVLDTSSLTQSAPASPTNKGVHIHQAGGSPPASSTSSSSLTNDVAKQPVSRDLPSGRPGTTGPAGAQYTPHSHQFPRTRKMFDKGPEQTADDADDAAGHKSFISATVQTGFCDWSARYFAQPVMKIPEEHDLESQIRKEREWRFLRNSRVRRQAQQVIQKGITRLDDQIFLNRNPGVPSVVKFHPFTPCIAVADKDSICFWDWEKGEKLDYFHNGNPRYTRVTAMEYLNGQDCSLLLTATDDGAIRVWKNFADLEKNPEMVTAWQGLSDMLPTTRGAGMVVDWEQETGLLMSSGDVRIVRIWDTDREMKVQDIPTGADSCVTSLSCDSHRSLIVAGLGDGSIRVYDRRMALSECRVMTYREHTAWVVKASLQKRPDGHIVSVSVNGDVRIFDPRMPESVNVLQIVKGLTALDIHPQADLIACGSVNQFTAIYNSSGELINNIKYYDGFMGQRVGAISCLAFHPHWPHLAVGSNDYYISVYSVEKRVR
Chain of mTORC1 (Homo sapiens) (Q9BVC4 whole entry, looked up, other chains not shown): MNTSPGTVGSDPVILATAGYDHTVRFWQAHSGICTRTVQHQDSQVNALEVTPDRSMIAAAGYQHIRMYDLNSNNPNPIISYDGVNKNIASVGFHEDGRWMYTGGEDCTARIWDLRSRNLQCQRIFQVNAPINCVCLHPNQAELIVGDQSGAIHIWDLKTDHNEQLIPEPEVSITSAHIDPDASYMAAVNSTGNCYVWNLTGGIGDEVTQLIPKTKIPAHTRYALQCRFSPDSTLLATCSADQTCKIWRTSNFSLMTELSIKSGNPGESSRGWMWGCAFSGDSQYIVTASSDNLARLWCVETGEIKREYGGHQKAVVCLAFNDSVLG

Usually IC50 stands for the point on the concentration scale where inhibition reaches its midpoint. On to `O=C(O)/C(Cc1ccccc1[N+](=O)[O-])=N/Nc1nc(-c2ccc(Cl)c(Cl)c2)cs1`, for which, in the data set with A549, the IC50 amounted to 6000 nM.
With `C=C1C[C@@H](O)[C@@H](Br)C(C)(C)[C@]12CCC(C)=C(Cl)C2`, the half-inhibitory concentration (IC50) came out at 16400 nM in data set [1], 1700 nM in the data set on Leukemia cell and 1600 nM in the data set on Lymphoma cell line.
`COc1ncc(-c2ccc3nccc(-c4ccnnc4)c3c2)cc1NS(=O)(=O)c1ccc(F)cc1F` [OMIPALISIB] gave an IC50 in data set [2] of 0.024 nM.
Compound `C[C@H](CN)Oc1ccc2ncc(-c3cc4ccccc4o3)n2n1` gave a half-inhibitory concentration (IC50) in [3] of 904 nM.
A word on the inhibition: it is the percentage by which the read-out fell short of the control. Lower therefore signals a weak effect. For `Oc1cccc(-c2nc(N3CCOCC3)c3oc4ncccc4c3n2)c1`, at mTORC1 (Homo sapiens), the inhibition was 83.9%.
As to `CC1=C(/C=C/C(C)=C/C=C/C(C)=C/C(=O)Nc2ccc(F)cc2)C(C)(C)CCC1n1ccnc1` (stereo not given), the results for the inhibition in vivo at 10 mg/kg with MDA-MB-231 [4], with CWR22R [7] and in “animal or person” were 97%, 63.4% and 73.3%, respectively. The inhibition in vivo at 20 mg/kg in the data set with MDA-MB-231 [5] came to 97%; in the data set with CWR22R [8], 76.3%. The inhibition in vivo at 5 mg/kg in the data set on MDA-MB-231 [6] was found to be 91%.
As for `O=C(O)c1cc(-c2ccc(/C=C3\SC(=S)N(Cc4ccccc4)C3=O)o2)ccc1Cl`, at EIF4E/EIF4G1, the IC50 came to 13500 nM.
One may read the bioavailability as dose-corrected exposure relative to a reference, in per cent. Low values mean little systemic uptake, high ones much systemic uptake. In turn, `COC(=O)[C@H]1[C@@H](O)[C@@]2(O)c3c(OC)cc(O[C@@H]4O[C@@H]([C@H](O)CO)CO[C@H]4OC)cc3O[C@@]2(c2ccc(OC)cc2)[C@@H]1c1ccccc1` [SILVESTROL] came in with a bioavailability in the data set “in vivo” of 1%.
